# pIC50: −log10 of the molar value. Structures can show the parent of a compound that is named as a salt.
# Tests used:
# [1] = system: IL-4 stimulated expression of CD23 in human Ramos B cells (JAK-1 and JAK-3); assay: Assay for Ramos B-Cell Line Stimulated with IL-4 (CD23 upregulation, FACS); assay type: cell-based; conditions: Homo sapiens, Ramos, Ramos B cells stimulated with IL-4, CD23 expression by FACS; read-out: IC50, Example 41
# Procedure, shortened: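 Read-out: anti-CD23-PE flow cytometry on Ramos B cells, giving IC50. Cells (5×10^4 per point, RPMI + 5% serum) get compound or DMSO for 1 h at 37 °C, then IL-4 50 units/mL final for 20-24 h.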
# [2] = system: up-regulation of ICAM-1 (CD54) by IFNγ in U937 human monocytic cells; assay: U937 IFNγ ICAM1 FACS Assay; assay type: cell-based; conditions: Homo sapiens, U-937, U937 cells stimulated with IFNγ, ICAM-1 expression by FACS; read-out: IC50, Example 44
# From the text: The activity of the compounds of the invention may additionally be characterized by assaying the effect of the 2,4-substituted pyrimidinediamine compounds described herein on A549 lung epithelial cells and U937 cells. A549 lung epithelial cells and U937 cells up-regulate ICAM-1 (CD54) surface expression in response to a variety of different stimuli. Therefore, using ICAM-1 expression as readout, test compound effects on different signaling pathways can be assessed in the same cell type. Stimulation with IL-1β through the IL-1β receptor activates the TRAF6/NFκB pathway resulting in up-regulation of ICAM-1. IFNγ induces ICAM-1 up-regulation through activation of the JAK1/JAK2 pathway. The up-regulation of ICAM-1 can be quantified by flow cytometry across a compound dose curve and EC50, values are calculated.
# U937 human monocytic cells up-regulate ICAM-1 (CD54) surface expression in response to a variety of different stimuli. Therefore, using ICAM-1 expression as readout, compound effects on different signaling pathways can be assessed in the same cell type. IFNγ up-regulates ICAM-1 through activation of the JAK/Stat pathway. In this example, the up-regulation of ICAM-1 by IFNγ was assessed.
# The U937 human monocytic cell line was obtained from ATCC of Rockville Maryland, catalog number CRL-1593.2, and cultured in RPM1-1640 medium containing 10% (v/v) FCS. U937 cells were grown in 10% RPMI. The cells were then plated at a concentration of 100,000 cells per 160 μL in 96 well flat bottom plates. […] Then 4 μL of test compound was transferred to 76 μL of 10% RPMI resulting in a 10× solution (100 μM test compound, 5% DMSO). For control wells, 4 μL of DMSO was diluted into 76 μL 10% RPMI.
# The assay was performed in duplicate with 8 points (8 3-fold dilution concentrations from […]) and with 4 wells of DMSO only (control wells) under stimulated conditions and 4 wells of DMSO only under unstimulated conditions.
# The diluted compound plate was mixed 2× using a multimek (Beckman Coulter of Brea, California) and then 20 μL of the diluted compounds was transferred to the 96 well plate containing 160 μL of cells, which were then mixed again twice at low speeds. The cells and compounds were then pre-incubated for 30 minutes at 37° C. with 5% CO2.
# The 10× stimulation mix was made by preparing a 100 ng/mL solution of human IFNγ in 10% RPMI. […] The cells were kept under conditions for stimulation for 18-24 hours at 37° C. with 5% CO2.
# The cells were transferred to a 96 well round bottom plate for staining and then kept on ice for the duration of the staining procedure. Cells were spun down at 1000 rpm for 5 minutes at 4° C., following which the supernatant was removed. Following removal of the supernatant, 1 μL APC conjugated mouse anti-human ICAM-1 antibody was added per 100 μL FACS buffer. The cells were then incubated on ice in the dark for 30 minutes. Following incubation, […] of FACS buffer was added and the cells were centrifuged at 1000 rpm for 5 minutes at 4° C., following which the supernatant was removed. After removal of the supernatant, 200 μL of FACS buffer was added and the cells were resuspended. After suspension, the cells were centrifuged at 1000 rpm for 5 min at 4° C. Supernatant was then removed prior to resuspension of the cells in 150 μL FACS buffer.
# Detection was performed using a BD LSR I System Flow Cytometer, purchased from BD Biosciences of San Jose, California The live cells were gated for live scatter and the geometric mean of ICAM-APC was measured (Becton-Dickinson CellQuest software version 3.3, Franklin Lakes, NJ). Both % live cells and ICAM-1 expression was analyzed. The assays for the test compounds were carried out in parallel with a control compound of known activity.
SMILES,pIC50 [1],pIC50 [2]
"COc1ccc(CN2C(=O)C(C)Sc3ccc(Nc4nc(Nc5ccc(S(N)(=O)=O)cc5)ncc4F)cc32)cc1 (racemic) [Compound V-10, (R/S)-N2-(4-Aminosulphonylphenyl)-5-fluoro-N4-[2-methyl-3-oxo-4-(4-methoxybenzyl)-benzo[1,4]thiazin-6-yl]-2,4-pyrimidinediamine]",6.58,5.57
"N#CCN1C(=O)COc2ccc(Nc3nc(Nc4ccc(S(N)(=O)=O)cc4)ncc3F)cc21 [Compound V-6, N2-(4-Aminosulphonylphenyl)-5-fluoro-N4-(3-oxo-4-cyanomethyl-benz[1,4]oxazin-6-yl]-2,4-pyrimidinediamine]",7.66,6.24
"N#CCN1C(=O)COc2ccc(Nc3nc(Nc4cccc(S(N)(=O)=O)c4)ncc3F)cc21 [Compound V-7, N2-(3-Aminosulphonylphenyl)-5-fluoro-N4-(3-oxo-4-cyanomethyl-benz[1,4]oxazin-6-yl]-2,4-pyrimidinediamine]",7.23,6.09
"Cc1ccc(Nc2ncc(F)c(Nc3ccc4c(c3)N(CC#N)C(=O)CO4)n2)cc1S(N)(=O)=O [Compound V-8, N2-(3-Aminosulphonyl-4-methylphenyl)-5-fluoro-N4-[3-oxo-4-cyanomethyl-benz[1,4]oxazin-6-yl]-2,4-pyrimidinediamine]",7.54,6.21
"N#CCN1C(=O)CSc2ccc(Nc3nc(Nc4ccc(S(N)(=O)=O)cc4)ncc3F)cc21 [Compound V-11, N2-(4-Aminosulphonylphenyl)-5-fluoro-N4-(3-oxo-4-cyanomethyl-benzo[1,4]thiazin-6-yl)-2,4-pyrimidinediamine]",7.16,5.85
"N#CCN1C(=O)CSc2ccc(Nc3nc(Nc4cccc(S(N)(=O)=O)c4)ncc3F)cc21 [Compound V-12, N2-(3-Aminosulphonylphenyl)-5-fluoro-N4-(3-oxo-4-cyanomethyl-benzo[1,4]thiazin-6-yl)-2,4-pyrimidinediamine]",6.73,5.52
"Cc1ccc(Nc2ncc(F)c(Nc3ccc4c(c3)N(CC#N)C(=O)CS4)n2)cc1S(N)(=O)=O [Compound V-13, N2-(3-Aminosulphonyl4-methylphenyl)-5-fluoro-N4-(3-oxo-4-cyanomethyl-benzo[1,4]thiazin-6-yl)-2,4-pyrimidinediamine]",7.28,5.92
"NS(=O)(=O)c1ccc(Nc2ncc(F)c(NCCc3ccc(-n4ccnc4)cc3)n2)cc1 [III-90, N2-(4-Aminosulfonylphenyl)-5-fluoro-N4-[4-(1-imidazolyl)phenethyl]-2,4-pyrimidinediamine]",6.45,5.58
"NS(=O)(=O)c1cccc(Nc2ncc(F)c(Nc3ccc(Cc4ccncc4)cc3)n2)c1 [III-128, N2-(3-Aminosulfonylphenyl)-5-fluoro-N4-[4-(4-pyridylmethyl)phenyl]-2,4-pyrimidinediamine p-Toluenesulfonic Acid Salt]",6.84,5.84
"NS(=O)(=O)c1cccc(Nc2ncc(F)c(Nc3cccc(-c4cnco4)c3)n2)c1 [IV-1, N2-(3-Aminosulfonylphenyl)-5-fluoro-N4-[3-(1,3-oxazol-5-yl)phenyl]-2,4-pyrimidinediamine]",7.13,6.57
"Cc1ccc(Nc2ncc(F)c(Nc3cccc(-c4cnco4)c3)n2)cc1S(N)(=O)=O [IV-2, N2-(3-Aminosulfonyl-4-methylphenyl)-5-fluoro-N4-[3-(1,3-oxazol-5-yl)phenyl]-2,4-pyrimidinediamine]",7.10,6.15
"NS(=O)(=O)c1cccc(Nc2ncc(F)c(Nc3ccc(-c4cnco4)cc3)n2)c1 [IV-5, N2-(3-Aminosulfonylphenyl)-5-fluoro-N4-[4-(1,3-oxazol-5-yl)phenyl]-2,4-pyrimidinediamine]",7.01,6.30
"Cc1ccc(Nc2ncc(F)c(Nc3ccc(-c4cnco4)cc3)n2)cc1S(N)(=O)=O [IV-6, N2-(3-Aminosulfonyl-4-methylphenyl)-5-fluoro-N4-[4-(1,3-oxazol-5-yl)phenyl]-2,4-pyrimidinediamine]",6.99,6.06
"C#CCn1ccc2cc(Nc3nc(Nc4ccc(C)c(S(N)(=O)=O)c4)ncc3F)ccc21 [IX-1, N2-(3-Aminosulfonyl-4-methylphenyl)-5-fluoro-N4-[1-(propyn-3-yl)indol-5-yl]-2,4-pyrimidinediamine]",7.05,5.95
"C#CCn1ccc2cc(Nc3nc(Nc4cccc(S(N)(=O)=O)c4)ncc3F)ccc21 [IX-2, N2-(3-Aminosulfonylphenyl)-5-fluoro-N4-[1-(propyn-3-yl)indol-5-yl]-2,4-pyrimidinediamine]",7.10,5.75
"Cc1ccc(Nc2ncc(F)c(Nc3ccc4c(CC#N)c[nH]c4c3)n2)cc1S(N)(=O)=O [IX-11, N2-(3-Aminosulfonyl-4-methylphenyl)-N4-(3-cyanomethyl-1H-indol-6-yl)-5-fluoro-2,4-pyrimidinediamine]",6.94,5.65
"COc1c(C)cc(Nc2ncc(F)c(Nc3ccc(C(C)(C)C)cc3)n2)cc1S(N)(=O)=O [VI-37, N2-(3-Aminosulfonyl-4-methoxy-5-methylphenyl)-N4-(4-tert-butylphenyl)-5-fluoro-2,4-pyrimidinediamine]",7.16,
"COc1ccc(Nc2nc(Nc3ccc(C(C)C)c(S(N)(=O)=O)c3)ncc2F)cc1Cl [VI-45, N2-(3-Aminosulfonyl-4-iso-propylphenyl)-N4-(3-chloro-4-methoxy-phenyl)-5-fluoro-2,4-pyrimidinediamine]",6.97,
"C#CCOc1ccc(Nc2nc(Nc3ccc(C)c(S(N)(=O)=O)c3)ncc2F)cc1Cl [VI-59, N2-(3-Aminosulfonyl-4-methylphenyl)-N4-[3-chloro-4-(prop-2-ynyloxy)phenyl]-5-fluoro-2,4-pyrimidinediamine]",7.12,
"Cc1ccc(Nc2ncc(F)c(Nc3ccc(CCCF)cc3)n2)cc1S(N)(=O)=O [VI-84, N2-(3-Aminosulfonyl-4-methylphenyl)-5-fluoro-N4-[4-(3-fluoropropyl)phenyl]-2,4-pyrimidinediamine]",6.88,
"NS(=O)(=O)c1ccc(Nc2ncc(F)c(Nc3ccc(CCCO)cc3)n2)cc1 [VI-85, N2-(4-Aminosulfonylphenyl)-5-fluoro-N4-[4-(3-hydroxypropyl)phenyl]-2,4-pyrimidinediamine]",6.89,
"NS(=O)(=O)c1ccc(Nc2ncc(F)c(Nc3ccc(CCCCO)cc3)n2)cc1 [VI-88, N2-(4-Aminosulfonylphenyl)-5-fluoro-N4-[4-(4-hydroxybutyl)phenyl]-2,4-pyrimidinediamine]",6.67,
"Cc1ccc(Nc2ncc(F)c(Nc3ccc4oc(C#N)cc4c3)n2)cc1S(N)(=O)=O [VII-53, N2-(3-Aminosulfonyl-4-methylphenyl)-N4-(2-cyanobenzofuran-5-yl)-5-fluoro-2,4-pyrimidinediamine]",6.77,
"Cc1ccc2cc(Nc3nc(Nc4ccc(C)c(S(N)(=O)=O)c4)ncc3F)ccc2n1 [VII-71, N2-(3-Aminosulfonyl-4-methylphenyl)-5-fluoro-N4-(2-methylquinolin-6-yl)-2,4-pyrimidinediamine]",6.83,

# From patent US11827628B2, “Compositions and methods for inhibition of the JAK pathway” (Rigel Pharmaceuticals, Inc., priority 2005, dated 2023)
